# Measured values taken from patent US5532233A, “Hetrazepine compounds which have useful pharmaceutical utility” (priority 1986, dated 1996).
# Where two headings read alike, the source gives them in different places.
# Experiments:
# benzodiazepine receptor = benzodiazepine receptor bonding test using [^3 H] flunitrazepam as radioligand (FNB); format: binding
# [1] = test system: PAF-induced aggregation of human thrombocytes; test: PAF-induced aggregation of human thrombocytes in vitro (inhibition of blood platelet aggregation); format: cell-based; conditions: read-out: IC50 value PAF
# Procedure: The PAF-antagonistic activity of some compounds of formulae Ia and Ib was tested in vitro on the inhibition of blood platelet aggregation.
# 1. Tests in vitro: inhibition of blood platelet aggregation
# The PAF-induced aggregation of human thrombocytes in vitro was used to determine the PAF antagonistic activity of substances. In order to obtain thrombocyte-rich plasma (TRP) blood is taken from an uncongested vein using a plastic syringe which contains 3.8% sodium citrate solution. The ratio of sodium citrate solution to blood is 1:9. After careful mixing the citrated blood is centrifuged for 20 minutes at 150×g (1200 rpm). The thrombocyte aggregation is measured using the method developed by Born and Cross (G. V. R. Born and M. J. Cross, J. Physiol. 168, 178 (1963)), with PAF being added to the TRP with constant stirring to initiate aggregation.
# The test substance is added in a volume of 10 μl 2-3 minutes before aggregation is initiated. The solvent used is either distilled water, ethanol and/or dimethyl sulphoxide. Control mixtures are given corresponding volumes of these solvents. After the initial absorption has been recorded (2-3 minutes) aggregation is induced with PAF (5×10^-8 M).
# The peak of the first aggregation wave is used in order to assess the effects of the substance. The PAF-induced maximum absorption rate (=maximum aggregation×100%) is tested at the same time in a parallel mixture (=control mixture in one of the channels of the 2-channel aggregometer) to each test mixture (second channel) and used as a 100% value. The aggregation value achieved under the influence of the test substance is […].
# Each test substance is tested at concentrations of from 10^-3 to 10^-8 M with a random sampling scope of n=4 to determine any inhibitory activity on the PAF-induced thrombocyte aggregation. A concentration-activity curve is then drawn up from 3 concentrations and the IC50 is determined (concentration for a 50% inhibition of aggregation). With some compounds, only approximate tests for guidance are carried out.
# PAF = conditions: PAF-antagonistic activity; Kornecki et al.; read-out: IC50 (concentration for a 50% inhibition of aggregation); cited from earlier work
# [2] = test system: PAF-induced aggregation of human thrombocytes; conditions: PAF-antagonistic activity known from European Patent Application No. 176 927; read-out: IC50 (the concentration at which a 50% inhibition of aggregation is measured); cited from earlier work
# [3] = [^3 H] flunitrazepam, racemate tested unless otherwise noted, read-out: IC50 value FNB (flunitrazepam bonding test)
# [4] = inhibition of PAF-induced (5×10^-8 M) human thrombocyte aggregation, racemate tested unless otherwise noted
# [5] = [^3 H] flunitrazepam as radioligand, read-out: value in the benzodiazepine receptor bonding test
SMILES,IC50 (benzodiazepine receptor; [3]) [nM],IC50 ([1]; Homo sapiens) [nM],other results
Cc1nnc2n1-c1sc3c(c1C(c1ccccc1Cl)=NC2)CC(CN1CCOCC1)C3 (stereo not shown) [Example 66],920,< 200,–
"Cc1nnc2n1-c1sc3c(c1C(c1ccccc1Cl)=NC2)CCC(C(=O)N1CCOCC1)C3 (stereo not shown) [Example 2, 3-(Morpholin-4-yl-carbonyl)-6-(2-chlorophenyl)-11-methyl-2,3,4,5-tetrahydro-8H-[1]benzothieno[3,2-f][1,2,4]triazolo[4,3-a][1,4]diazepine]",> 5000,2500,–
"Cc1nnc2n1-c1sc3c(c1C(c1ccccc1Cl)=NC2)CC(CN1CCOCC1)CC3 (stereo not shown) [Example 21, 4-(N-Morpholinomethyl)-6-(2-chlorophenyl)-11-methyl-2,3,4,5-tetrahydro-8H-[1]benzothieno[3,2-f][1,2,4]triazolo[4,3-a][1,4]-diazepine]",> 5000,300,–
"OCC1Cc2sc3c(c2C1)C(c1ccccc1Cl)=NCc1nncn1-3 (stereo not shown) [Example 18, 3-(Hydroxymethyl)-5-(2-chlorophenyl)-3,4-dihydro-2H,7H-cyclopenta[4,5]thieno[3,2-f][1,2,4]triazolo[4,3-a][1,4]diazepine]",–,–,"IC50 [1, 4]: 1300 nM"
Cc1nnc2n1-c1sc3c(c1C(c1ccccc1Cl)=NC2)C(C(=O)N(C)C)CC3 (stereo not shown) [Example 46],1460,4800,–
"CC(=O)NCC(=O)N1CCc2c(sc3c2C(c2ccccc2Cl)=NCc2nnc(C)n2-3)C1 [Example 86, 3-Acetylaminomethylcarbonyl-6-(2-chlorophenyl)-11-methyl-2,3,4,5-tetrahydro-8H-pyrido[4',3':4,5]thieno[3,2-f][1,2,4]triazolo[4,3-a][1,4]diazepine]",> 5000,1000,–
Cc1nnc2n1-c1sc3c(c1C(c1ccccc1Cl)=NC2)CC(C1=NCCO1)CC3 (stereo not shown) [Example 79],4800,2200,–
Cc1nnc2n1-c1sc3c(c1C(c1ccccc1Cl)=NC2)CC(C1=NC(C)(C)CN1)CC3 (stereo not shown) [Example 83],–,–,"IC50 [1, 4]: 900 nM"
"CC(=S)N1CCc2c(sc3c2C(c2ccccc2Cl)=NCc2nnc(C)n2-3)C1 [Example 25, 3-Thioacetyl-6-(2-chlorophenyl)-11-methyl-2,3,4,5-tetrahydro-8H-pyrido[4',3':4,5]thieno[3,2-f][1,2,4]triazolo[4,3-a][1,4]diazepine]",2300,1000,–
Cc1cnc2n1-c1sc3c(c1C(c1ccccc1Cl)=NC2)CC(CO)CC3 (stereo not shown) [Example 64],–,–,"IC50 [1, 4]: 800 nM"
"CC(=O)OCC1Cc2sc3c(c2C1)C(c1ccccc1Cl)=NCc1nnc(C)n1-3 (stereo not shown) [Example 19, 3-Acetoxymethyl-5-(2-chlorophenyl)-10-methyl-3,4-dihydro-2H,7H-cyclopenta[4,5]thieno[3,2-f][1,2,4]triazolo[4,3-a][1,4]diazepine]",–,–,"IC50 [1, 4]: 600 nM"
CC(=O)OCC1CCc2sc3c(c2C1)C(c1ccccc1Cl)=NCc1nnc(C)n1-3 (stereo not shown) [Example 62],4600,400,–
"Cc1nnc2n1-c1ccc(Cl)cc1C(c1ccccc1)=NC2 [Alprazolam, reference compound]",5.5,14000,IC50 (PAF): 14000 nM
"Cc1nnc2n1-c1sc3c(c1C(c1ccccc1Cl)=NC2)CC(C1=NCCN1)CC3 (stereo not shown) [Example 33, 4-[2-Imidazolin-2-yl]-6-(2-chlorophenyl)-2,3,4,5-tetrahydro-8H-[1]benzothieno[3,2-f][1,2,4]triazolo[4,3-a][1,4]diazepine]",–,–,"IC50 [1, 4]: 2300 nM"
CCN(CC)C(=O)C1CCc2sc3c(c2C1)C(c1ccccc1Cl)=NCc1nnc(C)n1-3 (stereo not shown) [Example 36],> 5000,400,–
Cc1cnc2n1-c1sc3c(c1C(c1ccccc1Cl)=NC2)CC(CN1CCOCC1)C3 (stereo not shown) [Example 113],3000,< 200,–
"Cc1nnc2n1-c1sc3c(c1C(c1ccccc1Cl)=NC2)CCCC3 [Compound (A), 6-(2-chlorophenyl)-11-methyl-2,3,4,5-tetrahydro-8H-[1]benzothieno[3,2-f][1,2,4]triazolo[4,3-a][1,4]diazepine, reference compound]",21,< 2500,IC50 (benzodiazepine receptor; [5]): 21 nM; IC50 [2]: 2500 nM
Cc1nnc2n1-c1sc3c(c1C(c1ccccc1Cl)=NC2)CC(C(=O)N1CCN(C)CC1)CC3 (stereo not shown) [Example 37],> 5000,1800,–
"Cc1nnc2n1-c1sc3c(c1C(c1ccccc1Cl)=NC2)CCNC3 [Compound (B), 6-(2-chlorophenyl)-11-methyl-2,3,4,5-tetrahydro-8-H-pyrido[4',3':4,5]thieno-[3,2-f][1,2,4]triazolo[4,3-a][1,4]diazepine, reference compound]",35,< 7000,IC50 (benzodiazepine receptor; [5]): 35 nM; IC50 [2]: 10000 nM
"Cc1nnc2n1-c1sc3c(c1C(c1ccccc1Cl)=NC2)CC(C(=O)N1CCOCC1)CC3 (stereo not shown) [Example 1, 4-(Morpholin-4-yl-carbonyl)-6-(2-chlorophenyl)-11-methyl-2,3,4,5-tetrahydro-8H-[1]benzothieno[3,2-f][1,2,4]triazolo[4,3-a][1,4]diazepine]",> 5000,500,–
"Cc1nnc2n1-c1sc3c(c1C(c1ccccc1Cl)=NC2)CC(CO)CC3 (stereo not shown) [Example 17, 4-(Hydroxymethyl)-6-(2-chlorophenyl)-11-methyl-2,3,4,5-tetrahydro-8H-[1]benzothieno[3,2-f][1,2]triazolo[4,3-a][1,4]diazepine]",1070,1800,–
"Cc1nnc2n1-c1sc3c(c1C(c1ccccc1Cl)=NC2)CC(C(=O)N1CCOCC1)C3 (stereo not shown) [Example 7, 3-(Morpholin-4-yl-carbonyl)-5-(2-chlorophenyl)-10-methyl-3,4-dihydro-2H,7H-cyclopenta[4,5]thieno[3,2-f][1,2,4]triazolo[4,3-a][1,4]diazepine]",3600,300,–
CCN(CC)C(=O)C1CCc2sc3c(c2C1)C(c1ccccc1Cl)=NCc1ncc(C)n1-3 (stereo not shown) [Example 11],5000,500,–
"Cc1nnc2n1-c1ccc(Cl)cc1C(c1ccccc1Cl)=NC2 [Triazolam, reference compound]",1.4,9000,IC50 (PAF): 9000 nM
Cc1nnc2n1-c1sc3c(c1C(c1ccccc1Cl)=NC2)CC(C(=O)N(C)CCO)CC3 (stereo not shown) [Example 38],–,–,"IC50 [1, 4]: 2700 nM"
CC(=O)OCC1Cc2sc3c(c2C1)C(c1ccccc1Cl)=NCc1nncn1-3 (stereo not shown) [Example 68],–,–,"IC50 [1, 4]: 400 nM"
CCN(CC)C(=O)C1CCc2c(sc3c2C(c2ccccc2Cl)=NCc2nnc(C)n2-3)C1 (stereo not shown) [Example 35],> 5000,3300,–
Cc1cnc2n1-c1sc3c(c1C(c1ccccc1Cl)=NC2)CC(Cn1cncn1)CC3 (stereo not shown) [Example 63],> 5000,400,–
Cc1nnc2n1-c1sc3c(c1C(c1ccccc1Cl)=NC2)CC(C(=O)NCC(=O)N1CCOCC1)C3 (stereo not shown) [Example 58],380,400,–
"Cc1cnc2n1-c1sc3c(c1C(c1ccccc1Cl)=NC2)CC(C(=O)N1CCOCC1)CC3 (stereo not shown) [Example 10, 4-(Morpholin-4-yl-carbonyl)-6-(2-chlorophenyl)-11-methyl-2,3,4,5-tetrahydro-8H-[1]benzothieno[3,2-f]imidazo[1,2-a][1,4]diazepine]",–,–,"IC50 [1, 4]: 300 nM"
